Experiment [1] has as its system DAT and VMAT2 in brain. The note with it: conscious rat brain; cited from earlier work.
For experiment [2], the system named is experimental autoimmune encephalomyelitis (EAE) induced with mouse spinal cord homogenate in CFA. The experiment can be described thus: Experimental autoimmune encephalomyelitis (EAE) model of multiple sclerosis. Format: in vivo, Biozzi mice. To be noted: for protection against EAE (clinical disease score, weight loss): days -1 to 10, Biozzi mice; for overall effect on EAE disease: general statement, no dose given. As for the experimental part:
Groups of 10 Biozzi mice aged between 5 and 8 weeks of age were challenged in the flank with mouse spinal cord homogenate (SCH) in complete Freund's adjuvant (CFA) in order to induce EAE. Treatments were given according to the schedule below. Treatment (n=8 per group) Group A—vehicle control Group B—RU350 30 mg/kg days −1 to 10 once daily by oral gavage Group C—RU350 10 mg/kg days −1 to 10 twice daily by oral gavage Group D—Positive control drug A 20 mg/ml solution of SCH in PBS was prepared and mixed in an equal volume with CFA. The mixture was sonicated in a Branson 1200 sonicator for 15 minutes and then homogenised for three minutes. An amount of 1 mg in 100 μl was administered per mouse by subcutaneous injection at the base of tail. In addition, mice were given 200 ng pertussis toxin in 0.5 ml by intraperitoneal (ip) injection on day 0 and again 48 hours later. Mice were treated according to the outline above from day −1 to day 10. The compound of formula (Ia) (i.e. RUS350) was prepared daily by dissolving 15 mg of the compound (stored at −20° C.) in sterile distilled water to give 6 mg/ml solution. A dose of 100 μl was given by oral gavage daily to the group B mice (equivalent to 30 mg/kg per 20 g mouse). For group C mice, 1 ml of the […] stock was further diluted 1:3 in sterile distilled water, and a dose of 100 μl was given orally twice daily (equivalent to 2×10 mg/kg per 20 g mouse). Distilled water served as the vehicle control for the mice in group A. Group D mice were given a dose of 5 mg/kg dexamethasone (100 μg in 100 μl per 20 g mouse) on days 3-7 and days 10-12. Moribund animals were euthanised according to Home Office regulations and all remaining animals were euthanized at day 28 post-induction. At termination, brains and spinal cords were taken from all animals and fixed for histopathology examination. Mice were weighed prior to EAE induction (Day 0) and then daily from day 5 until termination. Clinical disease was monitored from day 5 and scored according the following system: [table]

Molecules are shown by their SMILES. Entries after “also recorded” stand apart in the source; their conditions may differ.

As to `COc1cc2c(cc1O[11CH3])CCN1C[C@@H](CC(C)C)[C@H](O)C[C@H]21` (single isomer, unassigned) [(+)-α-[^11C]dihydrotetrabenazine], the “distribution of radio-labelled isomer in the brain” value in experiment [1] was “accumulated in regions of the brain associated with higher concentrations of the neuronal membrane dopamine transporter (DAT) and the vesicular monoamine transporter (VMAT2)”.
Consider `COc1cc2c(cc1OC)[C@H]1C[C@H](O)[C@@H](CC(C)C)CN1CC2` (single isomer, unassigned) [compound of formula (Ia)], for which the “protection against EAE (clinical disease score, weight loss)” value in experiment [2] (10 mg/kg twice daily by oral gavage) is “very high level of protection”; in experiment [2] (30 mg/kg once daily by oral gavage) it was “moderate degree of protection”. In addition, the “overall effect on EAE disease” value in experiment [2] was “profound effect on the disease; also recorded: levels of protection similar to that provided by treatment with steroids”; in experiment [2] (listed as formula (Ia)) it was “inhibits the development of autoimmune encephalomyelitis”.
As for `COc1cc2c(cc1O[11CH3])CCN1C[C@H](CC(C)C)[C@@H](O)C[C@@H]21` [(−)-α-[^11C]dihydrotetrabenazine], the “distribution of radio-labelled isomer in the brain” value in experiment [1] was “almost uniformly distributed in the brain”.
For the compound `C[C@@H]1C[C@H]2[C@@H]3CCC4=CC(=O)C=C[C@]4(C)[C@@]3(F)[C@@H](O)C[C@]2(C)[C@@]1(O)C(=O)CO` [steroid, dexamethasone, reference compound], in experiment [2] (positive control, 5 mg/kg on days 3-7 and days 10-12, Biozzi mice), the “inhibition of severe EAE associated with weight loss” value is “markedly inhibited this effect”.
